Measurements taken from ChEMBL document CHEMBL3046393, “3D-QSAR studies of thiosemicarbazone and thiocarbamoylpyrazoline antiamebics” (Med Chem Res, 2013).
pIC50: −log10 of the molar value.

Test system: Entamoeba histolytica
Assay: Antiamoebic activity against trophozoite stage of Entamoeba histolytica HM-1:IMSS assessed as parasite growth inhibition after 72 hr by microdilution assay
Assay type: functional, organism-based

SMILES | pIC50
S=C(N1CCC(Cc2ccccc2)CC1)N1CCC(c2ccccc2)=N1 | 5.64
S=C(NC1CCCC1)N1CCC(c2cccc(Br)c2)=N1 | 5.38
CCCCN(C)C(=S)N1CCC(c2cccc(Br)c2)=N1 | 5.62
CCCCNC(=S)N1CCC(c2cccc(Cl)c2)=N1 | 4.91
CCCCNC(=S)N1CCC(c2ccccc2)=N1 | 4.63
CCN(CC)C(=S)N1CCC(c2ccccc2)=N1 | 5.38
CCCCN(C)C(=S)N1CCC(c2ccccc2)=N1 | 5.24
S=C(NC1CCCCCCC1)N1CCC(c2cccc(Br)c2)=N1 | 5.70
CCCNC(=S)N1CCC(c2cccc(Br)c2)=N1 | 5.07
CCCCN(C)C(=S)N1CCC(c2cccc(Cl)c2)=N1 | 6.15
CCCNC(=S)N1CCC(c2ccccc2)=N1 | 4.85
CC(C)NC(=S)N1CCC(c2cccc(Cl)c2)=N1 | 4.91
CCCN(CCC)C(=S)N1CCC(c2cccc(Br)c2)=N1 | 6.10
CC(C)/N=C(\S)N1CCC(c2cccc(Br)c2)=N1 | 4.82
S=C(N1CCN(c2ccccc2)CC1)N1CCC(c2ccccc2)=N1 | 5.51
CC(C)CNC(=S)N1CCC(c2ccccc2)=N1 | 4.95
S=C(NC1CCCCC1)N1CCC(c2cccc(Br)c2)=N1 | 5.51
S=C(NCc1ccccc1Cl)N1CCC(c2ccccc2)=N1 | 5.12
S=C(NC1CCCCCCC1)N1CCC(c2ccccc2)=N1 | 5.60
CCCN(CCC)C(=S)N1CCC(c2ccccc2)=N1 | 5.70

SMILES | pIC50
S=C(NCc1ccccc1Cl)N1CCC(c2cccc(Br)c2)=N1 | 5.59
CC(C)CNC(=S)N1CCC(c2cccc(Cl)c2)=N1 | 5.30
CC1CCN(C(=S)N2CCC(c3cccc(Cl)c3)=N2)CC1 | 5.55
S=C(NC1CCCC1)N1CCC(c2ccccc2)=N1 | 5.19
CCN(CC)C(=S)N1CCC(c2cccc(Cl)c2)=N1 | 6.00
S=C(N1CCN(c2ccccc2)CC1)N1CCC(c2cccc(Cl)c2)=N1 | 5.92
S=C(NC1CCCCC1)N1CCC(c2ccccc2)=N1 | 5.28
S=C(N1CCC(Cc2ccccc2)CC1)N1CCC(c2cccc(Br)c2)=N1 | 5.85
CC(C)NC(=S)N1CCC(c2ccccc2)=N1 | 4.64
S=C(NC1CCCCCCC1)N1CCC(c2cccc(Cl)c2)=N1 | 5.82
S=C(NC1CCCCC1)N1CCC(c2cccc(Cl)c2)=N1 | 5.62
CC1CCN(C(=S)N2CCC(c3ccccc3)=N2)CC1 | 5.32
CC1CCN(C(=S)N2CCC(c3cccc(Br)c3)=N2)CC1 | 5.44
CC(C)CNC(=S)N1CCC(c2cccc(Br)c2)=N1 | 5.21
S=C(NCc1ccccc1Cl)N1CCC(c2cccc(Cl)c2)=N1 | 5.66
CCN(CC)C(=S)N1CCC(c2cccc(Br)c2)=N1 | 5.92
CCCCNC(=S)N1CCC(c2cccc(Br)c2)=N1 | 4.85
S=C(NC1CCCC1)N1CCC(c2cccc(Cl)c2)=N1 | 5.43
CCCN(CCC)C(=S)N1CCC(c2cccc(Cl)c2)=N1 | 6.22
S=C(N1CCN(c2ccccc2)CC1)N1CCC(c2cccc(Br)c2)=N1 | 5.80
